Data taken from US20130196320A1, “METHOD FOR IMPROVING CLEAVAGE OF DNA BY ENDONUCLEASE SENSITIVE TO METHYLATION” (CELLECTIS, priority 2010, published 2013).
Where two headings read alike, the source gives them in different places.

Experiments:
[1] = tested on: CAPNS1 target in human CAPNS1 gene, 293H cells; assay: Meganuclease-induced mutagenesis assay at CAPNS1 recognition site; format: cell-based; conditions: Empty vector, 1 μM 5-aza-2′-deoxycytidine, CAPNS1 locus
Protocol: The human 293H cells (ATCC) were plated at a density of 1.2×10^6 cells per 10 cm dish in complete medium (DMEM supplemented with 2 mM L-glutamine, penicillin (100 IU/ml), streptomycin (100 μg/ml), amphotericin B (Fongizone: 0.25 μg/ml, Invitrogen-Life Science) and 10% FBS). The cells were pre-treated with 5-aza-deoxycytidine at 0.2 μM or 1 μM, 48 hours before transfection and the treatment was maintained 48 hours post-transfection. The medium was changed every day. The cells were transfected with 3 μg of DNA plasmids encoding meganuclease for RAG or 2.5 μg of each monomer CAPNS1 using Lipofectamine 2000 transfection reagent (Invitrogen) according to the manufacturer's protocol.
The efficiency of the meganuclease to promote mutagenesis at its endogenous recognition site was evaluated by sequencing the DNA surrounding the meganuclease cleavage site. Two days post-transfection, genomic DNA was extracted. 200 ng of genomic DNA were used to amplify (PCR amplification) the endogenous locus surrounding the meganuclease cleavage site. PCR amplification is performed to obtain a fragment flanked by specific adaptor sequences [adaptor A: 5′-[…]-NNNN-3′(SEQ ID NO: 46) and adaptor B, 5′-[…]-3′ (SEQ ID NO: 47)] provided by the company offering sequencing service (GATC Biotech AG, Germany) on the 454 sequencing system (454 Life Sciences). The primers sequences used for PCR amplification were:
RAG_R1: 5′-[…]-[…]-3′ (SEQ ID NO: 58) and CAPNS1_J3: 5′-[…]-NNNN-[…] (SEQ ID NO: 59) and CAPNS1_R3: 5′-[…]-[…]-3′ (SEQ ID NO: 60). Sequences specific to the locus are underlined. The sequence NNNN in primer F1 is a Barcode sequence (Tag) needed to link the sequence with a PCR product. The percentage of PCR fragments carrying insertion or deletion at the meganuclease cleavage site is related to the mutagenesis induced by the meganuclease through NHEJ pathway in a cell population, and therefore correlates with the meganuclease activity at its endogenous recognition site. 5000 to 10000 sequences were analyzed per conditions.

ADCY9.1 DNA target = assay: In vitro binding assay, fluorescence anisotropy of fluorescein-labeled ADCY9.1 duplex
Protocol: FIG. 12: Spectrofluorimetric titration of fluorescein-labeled ADCY9.1 by ADCY9. 50 nM of ADCY9.1 duplex was incubated with increasing concentrations of ADCY9 (from 0 to 1.5 μM) in binding buffer (10 mM Tris-HCl, 150 mM NaCl, 10 mM CaCl2, 10 mM DTT, pH8) at 25° C. After 30 minutes incubation, the fluorescence anisotropy of the mixture was recorded with a Pherastar Plus (BMG Labtech) operating in fluorescence polarization end point mode with excitation and emission wavelengths set to 495 and 520 nm respectively. Normalized fluorescence anisotropy is plotted as a function of ADCY9 concentration. Apparent dissociation constant were determined by fitting raw data by an hyperbolic function (Ax=(A∞*[Meganuclease])/(Kd+[Meganuclease]) with Ax, the fluorescence anisotropy value obtained at a given meganuclease concentration, A∞ the fluorescence anisotropy value obtained at saturating concentration of meganuclease and Kd the dissociation constant of the equilibrium studied).
Fluorescein labeled C1234 oligonucleotides were synthesized and HPLC-purified by Eurogentec. […] C 1234 duplex and fluorescein final concentrations were assessed by spectrophotometry using their respective extinction coefficients ε260nm=62900 M^−1 cm^−1 and ε495nm=83000 M^−1 cm^−1. […]

| Kd (ADCY9.1 DNA target; ADCY9.1_Me −3a/−2b (fully methylated), sigmoidal pattern, read-out: Kd (apparent)) | Kd (ADCY9.1 DNA target; unmethylated ADCY9.1, read-out: Kd) | Molecule | mutagenesis, PCR fragments carrying a mutation [1] | mutagenesis, PCR fragments carrying a mutation ([1]; listed as 5-aza-2′-deoxycytidine) |
| --- | --- | --- | --- | --- |
|  |  | Nc1ncn([C@H]2C[C@H](O)[C@@H](CO)O2)c(=O)n1 [5-aza-2′deoxycytidine, reference compound] | 0.22%±0.25 | 0.22% ± 0.25 |
| 431 ± 30 nM | 190 ± 19 nM | ADCY9: engineered meganuclease (SEQ ID NO: 3) designed to cleave adenylate cyclase 9 gene (protein) MANTKYNEEFLLYLAGFVDGDGSIIAQIKPNQSYKFKHQLSLTFRVTQKTQRRWFLDKLVDEIGVGYVRDSGSVSNYDLSEIKPLHNFLTQLQPFLELKQKQANLVLKIIEQLPSAKESPDKFLEVCTWVDQVAALNDSKTRKTTSETVRAVLDSLSEKKKSSPAAGGSDKYNQALSKYNQALSKYNQALSGGGGSNKKFLLYLAGFVDSDGSIIAQIKPDQSYKFKHQLGLTFQVTQKTQRRWFLDKLVDRIGVGYVRDRGSVSDYILSEIKPLHNFLTQLQPFLKLKQKQANLVLKIIEQLPSAKESPDKFLEVCTWVDQVAALNDSKTRKTTSETVRAVLDSLSEKKKSSP |  |  |
